Experimental data from article PMC7996970 (The Biochemical journal, 2020).

Experiments:
[1] = target: isocitrate dehydrogenase 1 (IDH1) (Homo sapiens, UniProt O75874, D273S); test: steady-state kinetics, NADPH absorbance at […] nm; type: biochemical
[2] = target: isocitrate dehydrogenase 1 (IDH1) (Homo sapiens, UniProt O75874); test: steady-state kinetics, NADPH absorbance at […] nm; type: biochemical
[3] = target: isocitrate dehydrogenase 1 (IDH1) (Homo sapiens, UniProt O75874, D273N); test: steady-state kinetics, NADPH absorbance at […] nm; type: biochemical
isocitrate dehydrogenase 1 (IDH1) (Homo sapiens, UniProt O75874, D273N), sequence (O75874 2-414 D273N): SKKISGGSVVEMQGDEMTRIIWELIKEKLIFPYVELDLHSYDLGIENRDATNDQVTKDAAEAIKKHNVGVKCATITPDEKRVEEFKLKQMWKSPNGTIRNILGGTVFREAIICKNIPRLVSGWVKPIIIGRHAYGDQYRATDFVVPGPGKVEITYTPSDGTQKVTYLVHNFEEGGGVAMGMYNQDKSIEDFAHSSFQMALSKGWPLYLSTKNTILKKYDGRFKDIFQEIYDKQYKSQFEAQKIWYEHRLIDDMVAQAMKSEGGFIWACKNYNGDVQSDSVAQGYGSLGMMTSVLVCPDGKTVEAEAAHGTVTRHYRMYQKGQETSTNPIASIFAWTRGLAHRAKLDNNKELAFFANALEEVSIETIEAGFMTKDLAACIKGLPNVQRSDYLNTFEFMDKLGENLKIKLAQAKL

[4] = target: isocitrate dehydrogenase 1 (IDH1) (Homo sapiens, UniProt O75874, K217M); test: steady-state kinetics, NADPH absorbance at […] nm; type: biochemical
isocitrate dehydrogenase 1 (IDH1) (Homo sapiens, UniProt O75874, K217M), sequence (O75874 2-414 K217M): as the sequence (O75874 2-414 D273N) above, with K216M, N272D counted along it

[5] = target: isocitrate dehydrogenase 1 (IDH1) (Homo sapiens, UniProt O75874, K217Q); test: steady-state kinetics, NADPH absorbance at […] nm; type: biochemical
isocitrate dehydrogenase 1 (IDH1) (Homo sapiens, UniProt O75874, K217Q), sequence (O75874 2-414 K217Q): as the sequence (O75874 2-414 D273N) above, with K216Q, N272D counted along it

[6] = target: isocitrate dehydrogenase 1 (IDH1) (Homo sapiens, UniProt O75874, D273L); test: steady-state kinetics, NADPH absorbance at […] nm; type: biochemical
isocitrate dehydrogenase 1 (IDH1) (Homo sapiens, UniProt O75874, D273L), sequence (O75874 2-414 D273L): as the sequence (O75874 2-414 D273N) above, with N272L counted along it

[7] = target: isocitrate dehydrogenase 1 (IDH1) (Homo sapiens, UniProt O75874, D273L/R132H); test: isothermal titration calorimetry; type: binding
isocitrate dehydrogenase 1 (IDH1) (Homo sapiens, UniProt O75874, D273L/R132H), sequence (O75874 2-414 R132H/D273L): as the sequence (O75874 2-414 D273N) above, with R131H, N272L counted along it

isocitrate dehydrogenase 1 (IDH1) (Homo sapiens, UniProt O75874), sequence (O75874 2-414): as the sequence (O75874 2-414 D273N) above, with N272D counted along it
isocitrate dehydrogenase 1 (IDH1) (Homo sapiens, UniProt O75874, D273S), sequence (O75874 2-414 D273S): as the sequence (O75874 2-414 D273N) above, with N272S counted along it

SMILES | Km [1] | Km [2] | Km [3] | Km [4] | Km [5] | Km [6] | Kd [7]
O=C(O)CC(C(=O)O)C(O)C(=O)O (stereo not shown) [isocitrate] | 12000 ± 3000 µM | 61 ± 5 µM | 19000 ± 2000 µM | 150 ± 20 µM | 250 ± 20 µM | 1900 ± 200 µM | 
Cc1ccccc1C(C(=O)NC1CCCCC1)N(C(=O)Cn1ccnc1C)c1cccc(F)c1 (stereo not shown) [AGI-5198] |  |  |  |  |  |  | 3.3 ± 0.5 µM
